Where two headings read alike, the source gives them in different places.
Tests used:
[1] = system: Klebsiella pneumoniae ATCC 33495; test: MIC determination; type: cell-based; settings: Klebsiella pneumoniae, read-out: Minimum inhibitory concentrations (MIC)
Method: (§1) Minimum inhibitory concentration (MIC) determination.
(§2) In order to choose the appropriate concentrations to be tested in the checkerboard experiments, minimum inhibitory concentrations (MICs) were determined first. […] Table 6) in microtiter plates. Stock solutions (10 mg/ml) of reference antibiotics were prepared in DMSO (except for tobramycin, gentamicin, lomefloxacin, tetracycline) and stored at 4° C. The bacteria were grown in Mueller-Hinton Broth (BBL Mueller-Hinton Broth II, cation adjusted). S. pneumoniae was grown in Mueller-Hinton Broth supplemented with 5% (v/v) lysed sheep blood. For the growth of H. influenzae HTM (Haemophilus test medium) was used containing Mueller-Hinton broth, yeast extract ([…], Difco) and supplemented with NAD and hematin (HTM Supplement, Oxoid SR0158E). M. catarrhalis was grown in Brain Heart Infusion medium (Oxoid). The bacteria were incubated for 18 hours at 37° C. in ambient air except for S. pneumoniae, H. influenzae and M. catarrhalis, which were incubated in the presence of 5% CO2. The MIC was determined as the lowest concentration of an individual drug that lead to no visible growth.

[2] = system: Staphylococcus aureus ATCC 25923; test: MIC determination; type: cell-based; settings: Staphylococcus aureus, read-out: Minimum inhibitory concentrations (MIC)
Method: as §1, §2

[3] = system: Moraxella catarrhalis RA 21; test: MIC determination; type: cell-based; settings: Moraxella catarrhalis, read-out: Minimum inhibitory concentrations (MIC)
Method: as §1, §2

[4] = system: Haemophilus influenzae ATCC 49766; test: MIC determination; type: cell-based; settings: Haemophilus influenzae, read-out: Minimum inhibitory concentrations (MIC)
Method: as §1, §2

[5] = system: Streptococcus pneumoniae ATCC 49619; test: MIC determination; type: cell-based; settings: Streptococcus pneumoniae, read-out: Minimum inhibitory concentrations (MIC)
Method: as §1, §2

S. aureus 101 [6] = test: checkerboard synergy assay with iclaprim; type: cell-based, Staphylococcus aureus; settings: antibiotic in combination with iclaprim
Method: (§3) The synergistic potential of iclaprim against Gram-positive and Gram-negative bacteria was determined using the checkerboard assay as described in Eliopoulos GM and Moellering, Jr. RC (1991), Antimicrobial combinations, pp. 432-492, in V. Lorian (ed.), Antibiotics in laboratory medicine, 3rd Ed., The Williams & Wilkins Co., Baltimore, the entire disclosure of which is herein incorporated by reference, allowing multiple test concentrations of iclaprim to be assayed in the presence of various concentrations of the other antibiotic in microtiter plates. The same growth media and conditions were used as described in 3.2 below.
(§4) Two different dilutions were used for iclaprim depending on the MIC determined for the bacterium. […] Iclaprim and the other antibiotic being tested were also dispensed alone in the last row and in the last column, respectively, as controls.
(§5) The Fractional Inhibitory Concentrations (FIC) for each added agent were calculated and used to determine the sum of FIC (ΣFIC) indicative of the synergistic potential of a given combination as described in Veyssier P. (1999), Inhibiteurs de la dihydrofolate reductase, nitrohétérocycles (furanes) et 8-hydroxyquinoleines, pp. 995-1027, in A. Bryskier (ed.), Antibiotiques agents antibatériens et antifongiques, 1st Ed., Ellipses Edition Marketing SA, Paris, the entire disclosure of which is herein incorporated by reference. Synergy was defined whereby the ΣFIC was <0.5, indifference (no synergy nor antagonism) whereby ΣFIC was ≥0.5 but ≤4, and antagonism whereby ΣFIC was >4. Additivity as a special form of indifference was defined whereby the ΣFIC was ≥0.5 but <1, for example as described in Stevens, D L et al. (1998), In vitro antimicrobial effects of various combinations of penicillin and clindamycin against four strains of Streptococcus pyogenes, J. Antimicrob. Chemother. 42: 1266-1268, the entire disclosure of which is herein incorporated by reference.

S. aureus 101 [7] = test: MIC determination; type: cell-based, Staphylococcus aureus
Method: as §1, §2

[8] = system: Klebsiella pneumoniae ATCC 33495; test: checkerboard synergy assay with iclaprim; type: cell-based; settings: antibiotic in combination with iclaprim; K. pneumoniae 33495
Method: as §3, §4, §5

[9] = system: Staphylococcus aureus ATCC 25923; test: checkerboard synergy assay with iclaprim; type: cell-based; settings: antibiotic in combination with iclaprim; S. aureus 25923
Method: as §3, §4, §5

[10] = system: Moraxella catarrhalis RA 21; test: checkerboard synergy assay with iclaprim; type: cell-based; settings: antibiotic in combination with iclaprim; M. catarrhalis RA 21
Method: as §3, §4, §5

[11] = system: Haemophilus influenzae ATCC 49766; test: checkerboard synergy assay with iclaprim; type: cell-based; settings: antibiotic in combination with iclaprim; H. influenzae 49766
Method: as §3, §4, §5

[12] = system: Streptococcus pneumoniae ATCC 49619; test: checkerboard synergy assay with iclaprim; type: cell-based; settings: antibiotic in combination with iclaprim; S. pneumoniae 49619
Method: as §3, §4, §5

S. pneumoniae 1/1 [13] = test: checkerboard synergy assay with iclaprim; type: cell-based, Streptococcus pneumoniae; settings: antibiotic in combination with iclaprim
Method: as §3, §4, §5

S. pneumoniae 1/1 [14] = test: MIC determination; type: cell-based, Streptococcus pneumoniae; settings: Streptococcus pneumoniae, read-out: Minimum inhibitory concentrations (MIC)
Method: as §1, §2

[15] = ATCC33495, K. pneumonia 33495, 18 hours at 37° C.
[16] = ATCC25923, S. aureus 25923, 18 hours at 37° C.
[17] = RA21, M. catarrhalis RA 21, 18 hours at 37° C., 5% CO2
[18] = ATCC49766, H. Influenza 49766, 18 hours at 37° C., 5% CO2
[19] = ATCC49619, S. pneumoniae 49619, 18 hours at 37° C., 5% CO2
[20] = Staphylococcus aureus, 101, 18 h; read-out: Minimum inhibitory concentrations (MIC)
[21] = S. pneumoniae 1/1, 18 hours at 37° C., 5% CO2

Compound	Σ FIC (S. aureus 101 [6])	Con (Conclusion) [8]	Σ FIC [8]	Σ FIC [9]	Con (Conclusion) [10]	Σ FIC [10]	Con (Conclusion) [11]	Σ FIC [11]	Σ FIC [12]	Σ FIC (S. pneumoniae 1/1 [13])	MIC [1, 15]	MIC [2, 16]	MIC [3, 17]	MIC [4, 18]	MIC [5, 19]	MIC (S. aureus 101 [7]; [20])	MIC (S. pneumoniae 1/1 [14]; [21])	further results
C=C(NC(=O)C(=C)NC(=O)c1csc(C2=N[C@@H]3c4csc(n4)[C@H]4NC(=O)c5csc(n5)[C@H]([C@](C)(O)[C@@H](C)O)NC(=O)[C@H]5CSC(=N5)/C(=C/C)NC(=O)[C@H]([C@@H](C)O)NC(=O)c5csc(n5)[C@]3(CC2)NC(=O)[C@H](C)NC(=O)C(=C)NC(=O)[C@H](C)NC(=O)[C@H]([C@@H](C)CC)N[C@@H]2C=Cc3c([C@H](C)O)cc(nc3[C@H]2O)C(=O)O[C@@H]4C)n1)C(N)=O [Thiostrepton]	1.50-2.25	Ind (Indifference (Ind))	1.01-1.50	1.02-1.50	Ind (Indifference (Ind))	1.02-1.50	Ind (Indifference (Ind))	1.02-1.50	1.12-1.50	1.12-1.50	–	–	–	–	–	–	–	MIC ([1]; ATCC33495, 18 h): > 128 µg/mL; MIC ([2]; ATCC25923, 18 h): 0.5 µg/mL; MIC ([3]; RA21, 18 h): 0.5 µg/mL; MIC ([4]; ATCC49766, 18 h): 32 µg/mL; MIC ([5]; ATCC49619, 18 h): 0.063 µg/mL; MIC (S. aureus 101 [7]; Staphylococcus aureus, 101, 18 h, read-out: Minimum inhibitory concentrations (MIC)): 0.5 µg/mL; MIC (S. pneumoniae 1/1 [14]; 1/1, 18 h): 0.063 µg/mL
CCn1cc(C(=O)O)c(=O)c2cc(F)c(N3CCNCC3)cc21 [Norfloxacin]	1.02-1.50	Ad (Additivity (Ad))	0.75-1.13	0.56-1.25	Ad (Additivity (Ad))	0.56-1.13	Ad (Additivity (Ad))	0.52-1.25	1.00-1.25	1.13-1.50	2 µg/mL	1 µg/mL	0.5 µg/mL	0.125 µg/mL	4 µg/mL	128 µg/mL	4 µg/mL	–
NC[C@H]1O[C@H](O[C@H]2[C@H](O)[C@@H](O[C@H]3O[C@H](CO)[C@@H](O)[C@H](N)[C@H]3O)[C@H](N)C[C@@H]2N)[C@H](N)C[C@@H]1O [Tobramycin]	1.01-1.50	Ad (Additivity (Ad))	0.52-1.13	0.99-1.25	Ad (Additivity (Ad))	0.63-1.25	Ind (Indifference (Ind))	1.02-1.50	1.00-1.25	0.63-1.13	1 µg/mL	0.5 µg/mL	4 µg/mL	0.5 µg/mL	32 µg/mL	> 128 µg/mL	32 µg/mL	–
Cc1onc(-c2ccccc2)c1C(=O)N[C@@H]1C(=O)N2[C@@H]1SC(C)(C)[C@@H]2C(=O)O [Oxacillin]	1.00-1.25	Ind (Indifference (Ind))	1.01-1.50	1.06-1.50	Ind (Indifference (Ind))	1.06-1.50	Ind (Indifference (Ind))	1.00-1.25	1.06-1.50	1.06-1.50	> 128 µg/mL	0.125 µg/mL	32 µg/mL	16 µg/mL	2 µg/mL	8 µg/mL	32 µg/mL	–

From patent publication US20200038399A1, “FORMULATIONS, METHODS, KIT, AND DOSAGE FORMS FOR TREATING BACTERIAL INFECTION” (Motif BioSciences Inc., priority 2016, published 2020)
